Data set [1] has as its system L1210. Nature of the data set: Antitumor activity against mouse L1210 cells implanted in CDF1 mouse at 0.8 mg/kg, ip qd for 1 to 5 days relative to control. As to conditions: route intraperitoneal; call rule not given here. It is filed as functional.
In data set [2] the test system is Mus musculus. The data set is described as follows: Toxicity in mouse L1210 cells implanted CDF1 mouse assessed as survivors on day 5 at 1.6 mg/kg, ip single dose on day 1. It is filed as organism-based. Details: dose 1.6 mg/kg, route intraperitoneal. As to conditions: in vivo.
For data set [3], the system named is Mus musculus. Nature of the data set: Toxicity in mouse L1210 cells implanted CDF1 mouse assessed as average weight gain at 1.6 mg/kg, ip single dose on day 1. Type of data set: organism-based. Details: dose 1.6 mg/kg, route intraperitoneal. As to conditions: in vivo.
Data set [4] has as its system L1210. Nature of the data set: Antitumor activity against mouse L1210 cells implanted in CDF1 mouse assessed as median survival time at 0.8 mg/kg, ip single dose on day 1. As to conditions: route intraperitoneal. It is filed as functional.
Data set [5] has as its system L1210. Nature of the data set: Antitumor activity against mouse L1210 cells implanted in CDF1 mouse at 0.2 mg/kg, ip single dose on day 1 relative to control. It is filed as functional. As to conditions: route intraperitoneal.
Data set [6] deals with L1210. The data set is described as follows: Antitumor activity against mouse L1210 cells implanted in CDF1 mouse assessed as median survival time at 6.4 mg/kg, ip qd for 1 to 5 days. Type of data set: functional. As to conditions: route intraperitoneal.
For data set [7], the system named is L1210. The data set is described as follows: Antitumor activity against mouse L1210 cells implanted in CDF1 mouse at 1.6 mg/kg, ip qd for 1 to 5 days relative to control. It is filed as functional. As to conditions: route intraperitoneal.
In data set [8] the test system is L1210. The data set is described as follows: Antitumor activity against mouse L1210 cells implanted in CDF1 mouse at 1.6 mg/kg, ip single dose on day 1 relative to control. It is filed as functional. As to conditions: route intraperitoneal.
Data set [9] has as its system Mus musculus. Nature of the data set: Toxicity in mouse L1210 cells implanted CDF1 mouse assessed as survivors on day 5 at 6.4 mg/kg, ip single dose on day 1. Type of data set: organism-based. Details: dose 6.4 mg/kg, route intraperitoneal. As to conditions: in vivo.
Data set [10] has as its system Mus musculus. Nature of the data set: Toxicity in mouse L1210 cells implanted CDF1 mouse assessed as average weight gain at 0.4 mg/kg, ip qd for 1 to 5 days. It is filed as organism-based. Details: dose 0.4 mg/kg, route intraperitoneal. As to conditions: in vivo.
For data set [11], the system named is Mus musculus. The data set is described as follows: Toxicity in mouse L1210 cells implanted CDF1 mouse assessed as survivors on day 5 at 12.8 mg/kg, ip single dose on day 1. Type of data set: organism-based. Details: dose 12.8 mg/kg, route intraperitoneal. As to conditions: in vivo.
For data set [12], the system named is Mus musculus. Nature of the data set: Toxicity in mouse L1210 cells implanted CDF1 mouse assessed as survivors on day 5 at 25.6 mg/kg, ip single dose on day 1. Type of data set: organism-based. Further details: dose 25.6 mg/kg, route intraperitoneal. As to conditions: in vivo.
For data set [13], the system named is Mus musculus. Nature of the data set: Toxicity in mouse L1210 cells implanted CDF1 mouse assessed as average weight gain at 25.6 mg/kg, ip single dose on day 1. It is filed as organism-based. As to conditions: in vivo. Further details: dose 25.6 mg/kg, route intraperitoneal.
Data set [14] concerns L1210. The data set is described as follows: Antitumor activity against mouse L1210 cells implanted in CDF1 mouse assessed as median survival time at 1.6 mg/kg, ip single dose on day 1. As to conditions: route intraperitoneal. It is filed as functional.
The test system of data set [15] is Mus musculus. Nature of the data set: Toxicity in mouse L1210 cells implanted CDF1 mouse assessed as average weight gain at 0.4 mg/kg, ip single dose on day 1. It is filed as organism-based. Further details: dose 0.4 mg/kg, route intraperitoneal. As to conditions: in vivo.

Consider one molecule from ChEMBL document CHEMBL1148995, “Antitumor agents from bohemic acid complex, VI. Schaunardimycin” (J Nat Prod, 1984).

On to `CC[C@@]1(O)C[C@H](O[C@H]2C[C@H](NC)[C@H](O[C@H]3C[C@H](O)[C@H](O)[C@H](C)O3)[C@H](C)O2)c2c(cc3c(c2O)C(=O)c2c(O)ccc(O)c2C3=O)[C@H]1C(=O)OC` [SCHAUNARDIMYCIN], for which the T/C (commonly the result in the treated group divided by that in the control group, in per cent) with L1210 [1] is on record as 117%; in the data set on L1210 [5] it was 100%; in the data set on L1210 [7], 125%; in the data set on L1210 [8], 108%. In addition, the Activity result in the data set on Mus musculus [2] is “Active”; with Mus musculus [9], “Active”; in the data set on Mus musculus [11] it was “Active”; in the data set on Mus musculus [12], “Active”; in the data set with Mus musculus [13] it was -1.4 g. Moreover, the weight gain turned out to be 2.7 g with Mus musculus [3], 2.6 g with Mus musculus [10] and 2.8 g in the data set with Mus musculus [15]. The MST amounted to 6 days in the data set on L1210 [4], 8 days with L1210 [6] and 6.5 days in the data set with L1210 [14].
